Source: patent US9132140B2, “Boronic acid derivatives and therapeutic uses thereof” (Rempex Pharmaceuticals, Inc., priority 2013, dated 2015)

Experiments:
ECL1055 (KPC) = format: cell-based, Enterobacter cloacae
Description: (§1) Several strains simultaneously expressing both class A and class B carbapenemases, which were constructed using conjugation, were also included in the panel.

ECLM1013 (NDM, KPC) = format: cell-based, Enterobacter cloacae
Description: as §1

ECLM1017 (VIM, KPC) = format: cell-based, Enterobacter cloacae
Description: as §1

ECLM1019 (VIM, KPC) = format: cell-based, Enterobacter cloacae
Description: as §1

ECL1026 (KPC) = format: cell-based, Enterobacter cloacae
Description: as §1

ECLM1018 (VIM, KPC) = format: cell-based, Enterobacter cloacae
Description: as §1

ECL1082 (VIM-1) = format: cell-based, Enterobacter cloacae
Description: as §1

ECLM1014 (NDM, KPC) = format: cell-based, Enterobacter cloacae
Description: as §1

ECLM1015 (NDM, KPC) = format: cell-based, Enterobacter cloacae
Description: as §1

ECL1036 (KPC) = format: cell-based, Enterobacter cloacae
Description: as §1

ECLM1016 (NDM, KPC) = format: cell-based, Enterobacter cloacae
Description: as §1

ECL1045 (VIM-1) = format: cell-based, Enterobacter cloacae
Description: as §1

[1] = test system: ECL1057 (NDM-1, TEM-1, CTX-M-15); format: cell-based, Enterobacter cloacae
Description: as §1

EC1065 (IMP-1 CMY-2) = format: cell-based, Escherichia coli
Description: as §1

EC1061 (NDM-1, CMY-6) = format: cell-based, Escherichia coli
Description: as §1

[2] = test system: strains of Enterobacteriaceae producing various carbapenemases; assay: Meropenem/imipenem potentiation MIC, whole panel; format: cell-based; conditions: strains expressing various carbapenemases, incl. class A and class B simultaneously; compound fixed 4 vg/ml
Description: Several strains simultaneously expressing both class A and class B carbapenemases, which were constructed using conjugation, were also included in the panel. […]

NDM-1 = NDM-1 (Klebsiella pneumoniae, UniProt C7C422); assay: biochemical; conditions: substrate imipenem 100 μM
Chain of NDM-1 (C7C422 29-270, looked up, species assumed): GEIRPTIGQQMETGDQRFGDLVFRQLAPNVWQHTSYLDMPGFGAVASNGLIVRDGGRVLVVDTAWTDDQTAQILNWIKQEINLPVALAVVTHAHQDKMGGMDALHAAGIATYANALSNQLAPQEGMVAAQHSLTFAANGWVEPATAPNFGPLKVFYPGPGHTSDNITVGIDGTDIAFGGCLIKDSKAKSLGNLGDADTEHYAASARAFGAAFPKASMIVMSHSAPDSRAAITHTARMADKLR

## Nn1cnnc1S[C@H]1Cc2cccc(C(=O)O)c2OB1O [Compound 14, (R)-3-(4-amino-4H-1,2,4-triazol-3-ylthio)-2-hydroxy-3,4-dihydro-2H-benzo[e][1,2]oxaborinine-8-carboxylic acid]
ECL1055 (KPC)
  Imipenem + 14 MIC: X (key: X: MIC of less than 1 μg/mL; Y: MIC of 1 μg/mL to 10 μg/mL; Z: MIC of greater than 10 μg/mL)
  Meropenem + 14 MIC: X (key: X: MIC of less than 1 μg/mL; Y: MIC of 1 μg/mL to 10 μg/mL; Z: MIC of greater than 10 μg/mL)
ECLM1013 (NDM, KPC)
  Imipenem + 14 MIC: X (key: X: MIC of less than 1 μg/mL; Y: MIC of 1 μg/mL to 10 μg/mL; Z: MIC of greater than 10 μg/mL)
  Meropenem + 14 MIC: X (key: X: MIC of less than 1 μg/mL; Y: MIC of 1 μg/mL to 10 μg/mL; Z: MIC of greater than 10 μg/mL)
ECLM1017 (VIM, KPC)
  Imipenem + 14 MIC: X (key: X: MIC of less than 1 μg/mL; Y: MIC of 1 μg/mL to 10 μg/mL; Z: MIC of greater than 10 μg/mL)
  Meropenem + 14 MIC: X (key: X: MIC of less than 1 μg/mL; Y: MIC of 1 μg/mL to 10 μg/mL; Z: MIC of greater than 10 μg/mL)
ECLM1019 (VIM, KPC)
  Imipenem + 14 MIC: X (key: X: MIC of less than 1 μg/mL; Y: MIC of 1 μg/mL to 10 μg/mL; Z: MIC of greater than 10 μg/mL)
  Meropenem + 14 MIC: X (key: X: MIC of less than 1 μg/mL; Y: MIC of 1 μg/mL to 10 μg/mL; Z: MIC of greater than 10 μg/mL)
ECL1026 (KPC)
  Imipenem + 14 MIC: X (key: X: MIC of less than 1 μg/mL; Y: MIC of 1 μg/mL to 10 μg/mL; Z: MIC of greater than 10 μg/mL)
  Meropenem + 14 MIC: X (key: X: MIC of less than 1 μg/mL; Y: MIC of 1 μg/mL to 10 μg/mL; Z: MIC of greater than 10 μg/mL)
ECLM1018 (VIM, KPC)
  Imipenem + 14 MIC: Y (key: X: MIC of less than 1 μg/mL; Y: MIC of 1 μg/mL to 10 μg/mL; Z: MIC of greater than 10 μg/mL)
  Meropenem + 14 MIC: X (key: X: MIC of less than 1 μg/mL; Y: MIC of 1 μg/mL to 10 μg/mL; Z: MIC of greater than 10 μg/mL)
ECL1082 (VIM-1)
  Imipenem + 14 MIC: X (key: X: MIC of less than 1 μg/mL; Y: MIC of 1 μg/mL to 10 μg/mL; Z: MIC of greater than 10 μg/mL)
  Meropenem + 14 MIC: X (key: X: MIC of less than 1 μg/mL; Y: MIC of 1 μg/mL to 10 μg/mL; Z: MIC of greater than 10 μg/mL)
ECLM1014 (NDM, KPC)
  Imipenem + 14 MIC: X (key: X: MIC of less than 1 μg/mL; Y: MIC of 1 μg/mL to 10 μg/mL; Z: MIC of greater than 10 μg/mL)
  Meropenem + 14 MIC: X (key: X: MIC of less than 1 μg/mL; Y: MIC of 1 μg/mL to 10 μg/mL; Z: MIC of greater than 10 μg/mL)
ECLM1015 (NDM, KPC)
  Imipenem + 14 MIC: X (key: X: MIC of less than 1 μg/mL; Y: MIC of 1 μg/mL to 10 μg/mL; Z: MIC of greater than 10 μg/mL)
  Meropenem + 14 MIC: X (key: X: MIC of less than 1 μg/mL; Y: MIC of 1 μg/mL to 10 μg/mL; Z: MIC of greater than 10 μg/mL)
ECL1036 (KPC)
  Imipenem + 14 MIC: X (key: X: MIC of less than 1 μg/mL; Y: MIC of 1 μg/mL to 10 μg/mL; Z: MIC of greater than 10 μg/mL)
  Meropenem + 14 MIC: X (key: X: MIC of less than 1 μg/mL; Y: MIC of 1 μg/mL to 10 μg/mL; Z: MIC of greater than 10 μg/mL)
ECLM1016 (NDM, KPC)
  Imipenem + 14 MIC: X (key: X: MIC of less than 1 μg/mL; Y: MIC of 1 μg/mL to 10 μg/mL; Z: MIC of greater than 10 μg/mL)
  Meropenem + 14 MIC: X (key: X: MIC of less than 1 μg/mL; Y: MIC of 1 μg/mL to 10 μg/mL; Z: MIC of greater than 10 μg/mL)
ECL1045 (VIM-1)
  Imipenem + 14 MIC: X (key: X: MIC of less than 1 μg/mL; Y: MIC of 1 μg/mL to 10 μg/mL; Z: MIC of greater than 10 μg/mL)
  Meropenem + 14 MIC: X (key: X: MIC of less than 1 μg/mL; Y: MIC of 1 μg/mL to 10 μg/mL; Z: MIC of greater than 10 μg/mL)
[1]
  Imipenem + 14 MIC: Y (key: X: MIC of less than 1 μg/mL; Y: MIC of 1 μg/mL to 10 μg/mL; Z: MIC of greater than 10 μg/mL)
  Meropenem + 14 MIC: Z (key: X: MIC of less than 1 μg/mL; Y: MIC of 1 μg/mL to 10 μg/mL; Z: MIC of greater than 10 μg/mL)
EC1065 (IMP-1 CMY-2)
  Imipenem + 14 MIC: X (key: X: MIC of less than 1 μg/mL; Y: MIC of 1 μg/mL to 10 μg/mL; Z: MIC of greater than 10 μg/mL)
  Meropenem + 14 MIC: X (key: X: MIC of less than 1 μg/mL; Y: MIC of 1 μg/mL to 10 μg/mL; Z: MIC of greater than 10 μg/mL)
EC1061 (NDM-1, CMY-6)
  Imipenem + 14 MIC: X (key: X: MIC of less than 1 μg/mL; Y: MIC of 1 μg/mL to 10 μg/mL; Z: MIC of greater than 10 μg/mL)
  Meropenem + 14 MIC: X (key: X: MIC of less than 1 μg/mL; Y: MIC of 1 μg/mL to 10 μg/mL; Z: MIC of greater than 10 μg/mL)
[2]
  carbapenem MIC in the presence of compound: significantly reduced
NDM-1
  Ki: 10 to 100 nM
